Results from a melting point compilation (Tetko et al.; mined from patent text by program, amines drawn as free bases though some values may be those of a salt).

Compound | melting point
CC(=O)N(CC(=O)N1CC1C#N)c1ccccc1 (centres undefined) | 69 to 75 °C
CSc1cn(C)c2cc(C)sc2c1=O | 139 to 142 °C
C=CCN(CC=C)Cc1nc(-c2ncn3c2[C@@H]2CCN2C(=O)c2c(Cl)cccc2-3)no1 | 165 to 170 °C
CCn1c(=O)c2c(C)onc2n(C)c1=O | 103 to 104 °C
NNc1cc(Nc2ccc(F)c(C(F)(F)F)c2)nc(Cl)n1 | 102 to 103 °C
Cc1cc(NC(=O)Cc2cccs2)nc(C)c1Br | 192 °C
Cc1cc([N+](=O)[O-])ccc1OC12CC3CC(CC(C3)C1)C2 | 89.5 to 91 °C
N[C@@H](Cc1ccccc1)C(=O)N1CCN(C(c2ccc(F)cc2)c2ccc(F)cc2)CC1 | 44 to 51 °C
CC1CN=C(c2cccs2)NO1 (centres undefined) | 70 to 72 °C
O=S(=O)(Cl)c1ccc(F)c2nonc12 | 64 to 66 °C
CCCCn1c(=O)c2c(ncn2CCC(C)=O)n(CCCC)c1=O | 86 to 87 °C
COc1ccc([N+](=O)[O-])c(CC#N)n1 | 116 to 117 °C
Cc1cc(C)c(N)c(C(N)=O)c1 | 162 to 167 °C
Cc1csc(=S)n1OC(=O)c1ccccc1 | 100 to 102 °C
N#Cc1cnc2cc(-c3csc(CN4CCOCC4)c3)ccc2c1Nc1ccc(Cl)cc1Cl | 203 to 205 °C
CN1CCN(c2ccc(C3(C)C(=O)Nc4ccc(Cl)cc43)c(Cl)c2)CC1 (centres undefined) | 155 °C
CC1CCN(CCCC(=O)c2ccc3sc4ccc(C(=O)CCCN5CCC(C)CC5)cc4c3c2)CC1 | 136 to 138 °C
C=CCc1cc(C=CC(=O)O)ccc1O | 132 to 133 °C

Compound | melting point
Cn1c(C(F)(F)F)cc(=O)n(-c2ccc3snc(C=C(Br)Br)c3c2)c1=O | 260 to 262 °C
Cc1cc(CCCCCCO)cc(C(C)(C)C)c1O | 45 °C
CS(=O)c1cncc(-c2nc(=O)c3ccccc3s2)n1 (centres undefined) | 228 to 230 °C
Cc1c(NC(=O)C(C)(C)C)cccc1C(F)(F)F | 122 °C
CS(=O)c1nnc(-c2cc(C(C)(C)C)c(O)c(C(C)(C)C)c2)s1 (centres undefined) | 141 °C
Cc1cc(Oc2cc(C(F)(F)F)nn2C)nc(Cl)n1 | 65 °C
CCC1(O)CC(=O)OCc2c1cc1n(c2=O)Cc2c-1nc1ccccc1c2Cc1ccccc1 (centres undefined) | > 250 °C
O=C(CC1CCCCC1=O)c1ccc([N+](=O)[O-])cc1 (centres undefined) | 61 to 63 °C
NC(=S)N(O)[C@H]1C[C@@H](c2ccc(F)cc2)C1 | 156 to 158 °C
COC(=O)c1ccc(S(C)(=O)=O)c(C(=O)NCC(C)CO)c1Cl (centres undefined) | 70 to 72 °C
O=C(O)c1cc(=O)c(Oc2ccc(C3CCCCC3)cc2)co1 | 187 to 190 °C
CCc1ccc(C2CCCN2S(=O)(=O)c2ccc(F)cc2)cc1 (racemic) | 93 °C
CN(SC(Cl)(Cl)Cl)c1nc(C(Cl)(Cl)Cl)ns1 | 106 °C
CC(=O)NC(C)(C)c1ccc(C(C)O)cc1 (centres undefined) | 146 to 149 °C
O=c1ccn(-c2cc3[nH]c(=O)c(=O)[nH]c3cc2[N+](=O)[O-])cc1[N+](=O)[O-] | > 300 °C
CN(C(=O)[C@@H](OP(c1ccccc1)c1ccccc1)C(C)(C)C)P(c1ccccc1)c1ccccc1 | 95 to 96 °C
CN1C[C@H](CCN2CCN(C(c3ccccc3)c3ccccc3)CC2)C=C2c3cccc4[nH]cc(c34)C[C@H]21 | 165 to 169 °C

Now from value to molecule:

melting point | Compound
137 to 138 °C | Cc1cccc(-c2[nH]c(C(C)C)nc2-c2cccc(-c3ccc4c(c3)C=CS4(=O)=O)c2)n1
95 to 97 °C | O=C(Nc1ccc(Oc2ccnc(NCCN3CCCC3)n2)c2ccccc12)c1cc(F)cc(N2CCOCC2)c1
187 to 188 °C | COc1ccc(C(=O)Nc2ccccc2)cc1NCc1ccc(OC)c(OC)c1
184 to 185 °C | O=C(O)CCC1=C(n2nc(-c3c(-c4ccccc4)nn4ccccc34)ccc2=O)CCCC1
151 °C | CCOc1nc(CC)c(CNC(=O)C(S)CC(C)C)n1Cc1ccc(-c2ccccc2C(=O)O)cc1F (centres undefined)
208 to 209 °C | COc1ccccc1S(=O)(=O)N(C)c1cccc2cc(C3=NCC(CC(=O)Nc4nnc[nH]4)S3)[nH]c12 (centres undefined)
233 to 236 °C | CCc1cccc(C)c1CNc1nc(C(=O)O)cc2c1nc(C)n2C
53 to 54 °C | COC(=O)c1cc(OCc2ccccc2)nn1-c1ccccc1
172 to 173 °C | CC(C)Cn1c(=O)n(C)c(=O)c2c(SCCCC(=O)O)c(Cc3cccc4ccccc34)sc21
167 to 171 °C | C[C@@H](NS(=O)(=O)N1CCN(c2ccc(OCc3ccc4ccccc4c3)cc2)CC1)C(=O)O
186 to 187 °C | O=C(NC(=O)c1c(F)cccc1F)Nc1ccc(S(=O)(=O)C(F)(F)C(F)F)cc1F
140 to 142 °C | CS(=O)(=O)c1ccc(-n2nc(C(F)(F)F)cc2-c2ccc(-c3ncco3)cc2)cc1F
129 to 132 °C | OCCOc1cnccc1CCCOc1cccnc1Oc1ccccc1
256 to 258 °C | COC(=O)c1nc(-c2ccc(Cl)c(S(C)=O)c2F)nc(N)c1Cl (centres undefined)
71 to 72 °C | CC(C)(C)OC(=O)CC[C@H](NC(=O)c1ccc(NCCc2ccccc2)cc1F)C(=O)OC(C)(C)C
198 to 200 °C | CCc1cc(OCc2nc3ccccc3o2)c(=O)[nH]c1C
135 to 137 °C | Cn1ncnc1COc1nn2c(-c3ccccc3F)nnc2cc1CC1CCCC1

melting point | Compound
188 to 193 °C | O=C1Nc2ccccc2OCC1N1C(=O)c2ccccc2C1=O (centres undefined)
247 to 248 °C | Cc1cccc(-c2nc3ccc(Cl)nn3c2-c2ccnc(N)c2)c1
104 to 105 °C | COC(=O)CCC1OC(=O)N=C1c1ccccc1 (centres undefined)
70 to 72 °C | CCOC(C)=NS(=O)(=O)c1nc(-c2ccccc2Cl)ns1
147 to 148 °C | CSC1C(=O)Nc2c(C(=O)c3ccccc3F)cccc21 (centres undefined)
173 to 174 °C | CN1CCC(O)(c2cccc3ccc(N(Cc4ccccc4)Cc4ccccc4)cc23)CC1
136 to 138 °C | Cc1ccccc1NC(=O)Nc1ccc(CC(=O)NC(CC(C)C)c2cc(C=CC(=O)O)on2)cc1 (centres undefined)
99 to 100 °C | CCCN(CC)C1(c2ccccc2)c2ccccc2OC1[N+](=O)[O-] (centres undefined)
96 to 99 °C | CC(C)(C)NC(=O)[C@@H]1CCCN1C(=O)[C@@H](O)[C@H](Cc1ccccc1)NC(=O)[C@H](CC(N)=O)NCc1ccccc1
143 °C | COc1ccc2c(c1)CC(C(=O)NCc1ccc(C(=O)O)cc1)N2S(=O)(=O)c1ccc(-c2ccc(F)cc2F)cc1 (centres undefined)
107 to 111 °C | CCOC(=O)C1=C(C)NC(c2cnc(C)s2)=NC1c1ccc(F)cc1Cl (centres undefined)
168 to 170 °C | C[C@]12CCC(=O)N[C@@H]1CCc1cc(Sc3cnc4ccccc4c3)ccc12
110 to 114 °C | COc1ccc(-c2nc(-c3cccs3)c[nH]2)cc1C
163 to 165 °C | CS(=O)(=O)c1ccc(-c2cnn(CC(F)(F)F)c(=O)c2Oc2ccc(-c3ccccc3)cc2)cc1
164 °C | Cc1ccc(-c2c(N(C)C(=O)OC(C)(C)C)n(CC(C)C)c(=O)c3ccc(OCc4ccccc4)cc23)cc1
218 to 221 °C | CC(=O)c1ccc(-c2nn(C(C)c3oc4ccccc4c(=O)c3-c3cccc(F)c3)c3ncnc(N)c23)cc1 (centres undefined)
173 to 175 °C | CCOC(=O)C1=C(C)NC(=S)N(C(=O)c2ccccc2)C1c1cccc([N+](=O)[O-])c1 (centres undefined)
